Results on 1 molecule are retold here after PMC9002265, “A New Series of Strigolactone Analogs Derived From Cinnamic Acids as Germination Inducers for Root Parasitic Plants” (Frontiers in Plant Science, 2022).

Data set [1] is described as follows: Time course monitoring of degradation in hydroponic culture. The class given is physicochemical. The conditions noted are these: 1 μM, within 1 week, pH 5.7, LC-MS/MS. Here is the method:
t-CASL1, c-CASL1, PPASL, and GR5 were separately added to 15 ml tubes containing hydroponic culture. The final concentration of the test compounds is 1 μM and acetone was adjusted to 0.01% (v/v). These solutions were incubated under the same conditions as branching assay. After incubation for 0, 5, 24 72, or 168 h, 495 μl of hydroponic culture containing test compounds was collected and 5 μl of NAA solution (10 μM) was added as an internal standard. The solution was extracted with ethyl acetate. The ethyl acetate phase was dried up under the nitrogen gas and dissolved in acetonitrile. These samples were subjected to LC–MS/MS analysis equipped with reverse-phase column (CORTECS UPLC Phenyl 1.6 μm, ϕ2.1 × 75 mm; Waters). Each peak area of test chemicals and internal standard was calculated, and the remaining percentage of teste chemicals was calculated. At the same time, the degradation products of test compounds (CA or PPA) were also analyzed. Detailed information about the analytical condition was described in Supplementary Table 1.

Data set [2] concerns the target T1, ShHTL7 (Striga hermonthica, UniProt A0A0M3PNA2).
T1 sequence (A0A0M3PNA2 1-271): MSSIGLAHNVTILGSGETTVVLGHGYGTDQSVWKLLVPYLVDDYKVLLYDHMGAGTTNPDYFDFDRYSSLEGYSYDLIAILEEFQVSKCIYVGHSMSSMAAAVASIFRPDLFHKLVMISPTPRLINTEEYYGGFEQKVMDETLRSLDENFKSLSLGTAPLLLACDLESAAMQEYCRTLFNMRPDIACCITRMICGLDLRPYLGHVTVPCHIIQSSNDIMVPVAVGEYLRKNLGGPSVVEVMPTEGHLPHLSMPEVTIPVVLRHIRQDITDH
Put plainly: Hydrolysis assay with recombinant ShHTL7. Conditions: 10 μM substrate, 30°C, 60 min. Format: biochemical. Here is the method:
The ORF fragment of ShHTL6 and ShHTL7 was synthesized using IDT gBlock service. The PCR amplified ShHTL6 and ShHTL7 fragment was digested with Nco I and EcoR I, and the digested product was introduced into a modified pET28 vector with an N-terminal His8 tag. Escherichia coli BL21(DE3) was used for protein expression. The overnight culture (12 ml) was added to a fresh LB medium (1.2 L) containing kanamycin (50 mg/L) at 37°C. After OD600 reached 0.8, 0.1 mM IPTG was added and the cell was further incubated at 16°C for 21 h. The culture medium was centrifuged at 3700 g and the pellet was stored at −20°C until use. The pellet was resuspended and sonicated in a lysis buffer (50 mM Tris buffer (pH 8.0) containing 500 mM NaCl, 10 mM 2-mercaptoethanol, and 10% glycerol). The supernatant was purified by Ni Sepharose TM 6 Fast Flow (500 μl, Cytiva). After washing with the washing buffer (50 mM Tris buffer (pH 8.0) containing 500 mM NaCl and 20 mM imidazole), The bound protein was eluted with elution buffer (50 mM Tris buffer (pH 8.0) containing 500 mM NaCl and 200 mM imidazole). The eluate was concentrated using VIVASPIN Turbo 15 (Sartorius), and the concentration was adjusted to 5 mg/ml. The purified protein was aliquoted to the appropriate volume, immediately frozen in liquid nitrogen, and stored at −80°C until use.
Hydrolysis assays were carried out at 30°C for 60 min in 100 μl of a reaction buffer containing 0.13 pmol recombinant ShHTL7 or AtD14, 10 μM of substrate in 50 mM Phosphate-Na buffer (pH 7.0) containing 2% acetone. The enzyme reaction was stopped by addition of 100 μl of acetonitrile containing 1-naphtaleneacetic acid (NAA; 0.5 ng/μl) as an internal standard. After centrifuged at 13,000 rpm for 5 min, each sample was subjected to LC–MS/MS analysis equipped with reverse-phase column (CORTECS UPLC Phenyl 1.6 μm, ϕ2.1 × 75 mm; Waters). The concentration of remaining substrate and reaction product was calculated by using NAA as an internal standard. Detailed information about the analytical condition is described in Supplementary Table 1.

In data set [3] the test system is Arabidopsis wild type Col-0. The data set can be described thus: Growth promoting assay and root phenotypic analysis. Format: in vivo. The conditions noted are these: 1 μM on agar plate. As to the method:
Sterilized seeds of the Arabidopsis wild type Col-0 were put on the plate containing 1% (w/v) agar-solidified 0.5× Murashige and Skoog (MS) medium, 1% sucrose. Test compounds were dissolved in the medium at 1 μM by 10,000 times dilution from each acetone stock (final concentration of acetone was 0.01% (v/v)). To evaluate the growth promoting effect, these seedlings were cultured horizontally at 22°C for 20 days under LED light (105 μmol/m^2/s) with a 16 h light/8 h dark photoperiod. After the cultivation, flesh weight of shoot was measured. For root phenotypic analysis, these seedlings were cultured verticaly at 22°C for 11 days under LED light (105 μmol/m^2/s) with a 16 h light/8 h dark photoperiod. After the cultivation, root length was measured by using ImageJ software and number of lateral roots was counted by using a microscope.

Structures are written as SMILES.

As for `CC1=CC(OC(=O)/C=C\c2ccccc2)OC1=O` (centres unmarked) [c-CASL1], the “loss (non-enzymatic degradation) in hydroponic culture medium” value in data set [1] is recorded as around 40%. Besides, the “hydrolysis by HTL7” value in data set [2] is “can hydrolyze”. Moreover, in data set [3] (11 days), the lateral root density entry was “increased” and the primary root length entry is recorded as “inhibited”. Besides, the shoot fresh weight entry in data set [3] (20 days) is recorded as “increase”.
